Test results published in patent publication US9085576B2 (AMGEN INC., priority 2013, dated 2015).

Key:
[1] = target: Beta Secretase enzyme (BACE) (Homo sapiens (Human), UniProt P56817); experiment: In vitro enzymatic BACE FRET assay; format: biochemical; conditions: read-out: BACE1 Enzyme assay IC50
[2] = target: Cathepsin D (Cat D) (Homo sapiens (Human), UniProt P07339); experiment: In vitro enzymatic Cathepsin D (Cat D) FRET assay; format: biochemical; conditions: read-out: CatD IC50
[3] = target: BACE (Homo sapiens (Human), UniProt P56817); experiment: In vitro BACE cell-based assay (Aβ40 in conditioned medium, sandwich ELISA)
Chain of BACE (P56817 46-501, species assumed): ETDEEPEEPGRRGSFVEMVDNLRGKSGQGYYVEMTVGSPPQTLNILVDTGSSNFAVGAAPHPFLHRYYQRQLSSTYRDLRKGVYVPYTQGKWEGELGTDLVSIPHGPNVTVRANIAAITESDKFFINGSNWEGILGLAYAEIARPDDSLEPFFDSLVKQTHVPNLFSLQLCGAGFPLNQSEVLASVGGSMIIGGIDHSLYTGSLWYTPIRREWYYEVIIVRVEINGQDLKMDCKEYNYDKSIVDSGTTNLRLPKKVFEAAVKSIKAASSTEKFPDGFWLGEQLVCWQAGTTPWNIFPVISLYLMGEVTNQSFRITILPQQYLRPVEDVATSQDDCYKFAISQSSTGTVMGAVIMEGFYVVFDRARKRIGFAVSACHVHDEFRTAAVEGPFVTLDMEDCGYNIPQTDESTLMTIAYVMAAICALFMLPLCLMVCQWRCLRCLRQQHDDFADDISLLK

Chain of Cathepsin D (Cat D) (P07339 65-412, species assumed): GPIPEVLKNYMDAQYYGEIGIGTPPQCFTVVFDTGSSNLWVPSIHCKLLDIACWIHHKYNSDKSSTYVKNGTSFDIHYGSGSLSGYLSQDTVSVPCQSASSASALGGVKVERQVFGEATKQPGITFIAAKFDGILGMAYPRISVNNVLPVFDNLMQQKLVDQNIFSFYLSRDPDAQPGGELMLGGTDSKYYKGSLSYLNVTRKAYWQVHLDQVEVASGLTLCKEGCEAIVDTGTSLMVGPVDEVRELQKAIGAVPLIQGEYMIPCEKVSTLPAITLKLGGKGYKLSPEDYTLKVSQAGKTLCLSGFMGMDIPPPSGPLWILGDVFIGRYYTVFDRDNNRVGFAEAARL
Chain of Beta Secretase enzyme (BACE) (P56817 46-501): as the sequence (P56817 46-501, species assumed) above

Structure (SMILES)	IC50 [1]	IC50 [2]	IC50 [3]
NC1=N[C@@](c2cc(NC(=O)C3=CCCCC3)ccc2F)(C(F)F)[C@H]2C[C@H]2O1 [Example 243, N-(3-((1R,5S,6R)-3-amino-5-(difluoromethyl)-2-oxa-4-azabicyclo[4.1.0]hept-3-en-5-yl)-4-fluorophenyl)cyclohex-1-enecarboxamide]	24.4 µM	1030 µM	4.07 µM
NC1=N[C@@](CF)(c2cc(NC(=O)c3ccc(Cl)cn3)ccc2F)[C@@H]2C[C@@H]2O1 [Example 118, N-(3-((1S,5R,6S)-3-amino-5-(fluoromethyl)-2-oxa-4-azabicyclo[4.1.0]hept-3-en-5-yl)-4-fluorophenyl)-5-chloropicolinamide]	1.56 µM	1280 µM	0.221 µM
Cc1ncc(Cl)nc1C(=O)Nc1ccc(F)c([C@@]2(C(F)F)N=C(N)O[C@@H]3C[C@@H]32)c1 (stereo in doubt) [Example 54, N-(3-((1R,5S,6R)-3-amino-5-(difluoromethyl)-2-oxa-4-azabicyclo[4.1.0]hept-3-en-5-yl)-4-fluorophenyl)-6-chloro-3-methylpyrazine-2-carboxamide]	2.51 µM	460 µM	2.24 µM
Cc1cc(OC(F)F)cnc1C(=O)Nc1cc(F)c(Cl)c([C@]2(CF)N=C(N)O[C@H]3C[C@H]32)c1 (racemic) [Example 153, N-(3-([1(S,R),5(R,S),6(S, R)]-3-amino-5-(fluoromethyl)-2-oxa-4-azabicyclo[4.1.0]hept-3-en-5-yl)-4-chloro-5-fluorophenyl)-5-(difluoromethoxy)-3-methylpicolinamide compound with N-(3-((1S,5R,6S)-3-amino-5-(fluoromethyl)-2-oxa-4-azabicyclo[4.1.0]hept-3-en-5-yl)-4-chloro-5-fluorophenyl)-5-(difluoromethoxy)-3-methylpicolinamide (1:1)]	0.143 µM	555 µM	0.0762 µM
NC1=N[C@](c2cc(NC(=O)c3ccc(Br)cn3)ccc2F)(C(F)F)[C@@H]2C[C@@H]2O1 [Example 296, N-(3-((1S,5R,6S)-3-amino-5-(difluoromethyl)-2-oxa-4-azabicyclo[4.1.0]hept-3-en-5-yl)-4-fluorophenyl)-5-bromopicolinamide]	4.19 µM	1860 µM	3.51 µM
NC1=NC(c2cc(NCc3nn(C(F)F)cc3Cl)ccc2F)(C(F)F)[C@H]2C[C@H]2O1 (stereo in doubt) [Example 374, (1R,5R,6R)-5-(5-(((4-chloro-1-(difluoromethyl)-1H-pyrazol-3-yl)methyl)amino)-2-fluorophenyl)-5-(difluoromethyl)-2-oxa-4-azabicyclo[4.1.0]hept-3-en-3-amine]	0.0954 µM	116 µM	0.0779 µM
N#Cc1cnc2c(Nc3ccc(F)c([C@@]4(CF)N=C(N)O[C@@H]5C[C@@H]54)c3)nccc2c1 [Example 346, 8-((3-((1R,5S,6R)-3-amino-5-(fluoromethyl)-2-oxa-4-azabicyclo[4.1.0]hept-3-en-5-yl)-4-fluorophenyl)amino)-1,7-naphthyridine-3-carbonitrile]	0.0539 µM	205 µM	0.0176 µM
COc1cnc(C(=O)Nc2cc(F)c(F)c([C@@]3(CF)N=C(N)O[C@@H]4C[C@@H]43)c2)cn1 [Example 143, N-(3-((1R,5S,6R)-3-amino-5-(fluoromethyl)-2-oxa-4-azabicyclo[4.1.0]hept-3-en-5-yl)-4,5-difluorophenyl)-5-methoxypyrazine-2-carboxamide]	0.125 µM	529 µM	0.0221 µM
NC1=N[C@](CF)(c2cc(NC(=O)c3ccc(Br)cn3)cnc2F)[C@H]2C[C@H]2O1 [Example 235, N-(5-((1R,5S,6R)-3-amino-5-(fluoromethyl)-2-oxa-4-azabicyclo[4.1.0]hept-3-en-5-yl)-6-fluoropyridin-3-yl)-5-bromopicolinamide]	0.126 µM	1810 µM	0.0188 µM
Cc1nc(OCC(F)(F)F)cnc1C(=O)Nc1cc(F)c(Cl)c([C@@]2(CF)N=C(N)O[C@@H]3C[C@@H]32)c1 [Example 315, N-(3-((1R,5S,6R)-3-amino-5-(fluoromethyl)-2-oxa-4-azabicyclo[4.1.0]hept-3-en-5-yl)-4-chloro-5-fluorophenyl)-3-methyl-5-(2,2,2-trifluoroethoxy)pyrazine-2-carboxamide]	0.0936 µM	556 µM	0.0927 µM
NC1=N[C@](CF)(c2cc(NC(=O)c3ccc(F)cn3)ccc2Cl)[C@H]2C[C@H]2O1 [Example 445, N-(3-((1R,5S,6R)-3-amino-5-(fluoromethyl)-2-oxa-4-azabicyclo[4.1.0]hept-3-en-5-yl)-4-chlorophenyl)-5-fluoropicolinamide]	0.29 µM	1270 µM	0.031 µM
N#Cc1ccc(C(=O)Nc2ccc(F)c([C@@]3(C(F)F)N=C(N)O[C@@H]4C[C@@H]43)n2)nc1 (racemic) [Example 330]	0.101 µM	139 µM	0.0326 µM
NC1=NC(CF)(c2cc(NC(=O)c3nn(C(F)F)cc3Cl)cc(F)c2F)[C@@H]2C[C@@H]2O1 (stereo in doubt) [Example 47, N-(3-((1S,5S,6S)-3-amino-5-(fluoromethyl)-2-oxa-4-azabicyclo[4.1.0]hept-3-en-5-yl)-4,5-difluorophenyl)-4-chloro-1-(difluoromethyl)-1H-pyrazole-3-carboxamide]	21.2 µM	968 µM	1.76 µM
COc1cnc2c(Nc3ccc(F)c([C@@]4(C(F)F)N=C(N)O[C@@H]5C[C@@H]54)c3)ncc(F)c2c1 [Example 448, (1R,5S,6R)-5-(difluoromethyl)-5-(2-fluoro-5-((5-fluoro-3-methoxy-1,7-naphthyridin-8-yl)amino)phenyl)-2-oxa-4-azabicyclo[4.1.0]hept-3-en-3-amine]	0.117 µM	169 µM	0.0863 µM
CC(C)c1cccnc1C(=O)Nc1ccc(F)c([C@@]2(C(F)F)N=C(N)O[C@@H]3C[C@@H]32)c1 [Example 288, N-(3-((1R,5S,6R)-3-amino-5-(difluoromethyl)-2-oxa-4-azabicyclo[4.1.0]hept-3-en-5-yl)-4-fluorophenyl)-3-isopropylpicolinamide]	3.35 µM	1260 µM	2.22 µM
NC1=N[C@@](c2cc(-c3nnc(-c4ccc(F)cc4)[nH]3)ccc2F)(C(F)F)[C@H]2C[C@H]2O1 [Example 440, (1R,5S,6R)-5-(difluoromethyl)-5-(2-fluoro-5-(5-(4-fluorophenyl)-4H-1,2,4-triazol-3-yl)phenyl)-2-oxa-4-azabicyclo[4.1.0]hept-3-en-3-amine]	> 40 µM	250 µM	> 15.6 µM
COc1cnc2c(Nc3ccc(F)c([C@@]4(C)N=C(N)O[C@@H]5C[C@@H]54)c3)nccc2c1 [Example 340, (1R,5S,6R)-5-(2-fluoro-5-((3-methoxy-1,7-naphthyridin-8-yl)amino)phenyl)-5-methyl-2-oxa-4-azabicyclo[4.1.0]hept-3-en-3-amine]	0.506 µM	> 400 µM	0.0796 µM

These reach a lower IC50 [1]. Values come first.

IC50 [1]	IC50 [2]	IC50 [3]	Structure (SMILES)
0.0144 µM	477 µM	0.0737 µM	N#Cc1cnc(C(=O)Nc2ccc(F)c([C@@]3(C(F)F)N=C(N)O[C@@H]4C[C@@H]43)c2)c(C(F)F)c1 [Example 395, N-(3-((1R,5S,6R)-3-amino-5-(difluoromethyl)-2-oxa-4-azabicyclo[4.1.0]hept-3-en-5-yl)-4-fluorophenyl)-5-cyano-3-(difluoromethyl)picolinamide]
0.0164 µM	588 µM	0.0418 µM	C#CCOc1ccc(C(=O)Nc2ccc(F)c([C@@]3(C(F)F)N=C(N)O[C@@H]4C[C@@H]43)c2)nc1 [Example 232, N-(3-((1R,5S,6R)-3-amino-5-(difluoromethyl)-2-oxa-4-azabicyclo[4.1.0]hept-3-en-5-yl)-4-fluorophenyl)-5-(prop-2-yn-1-yloxy)picolinamide]
0.05 µM	351 µM	0.247 µM	Cc1nc(OCC(F)(F)F)cnc1C(=O)Nc1ccc(F)c([C@@]2(C(F)F)N=C(N)O[C@@H]3C[C@@H]32)c1 [Example 120, N-(3-((1R,5S,6R)-3-amino-5-(difluoromethyl)-2-oxa-4-azabicyclo[4.1.0]hept-3-en-5-yl)-4-fluorphenyl)-3-methyl-5-(2,2,2-trifluoroethoxy)pyrazine-2-carboxamide]
0.023 µM	558 µM	0.0158 µM	Cc1cc(NC(=O)c2ncc(C#N)cc2Cl)cc([C@@]2(C(F)F)N=C(N)O[C@@H]3C[C@@H]32)c1F [Example 133]
0.0141 µM	252 µM	0.0222 µM	NC1=N[C@@](c2cc(NC(=O)c3ncc(Br)cc3C(F)F)ccc2F)(C(F)F)[C@H]2C[C@H]2O1 [Example 290, N-(3-((1R,5S,6R)-3-amino-5-(difluoromethyl)-2-oxa-4-azabicyclo[4.1.0]hept-3-en-5-yl)-4-fluorophenyl)-5-bromo-3-(difluoromethyl) picolinamide]
0.0252 µM	444 µM	0.0159 µM	NC1=N[C@](CF)(c2cc(NC(=O)c3ncc(Cl)cc3CF)ccc2Cl)[C@H]2C[C@H]2O1 [Example 441, N-(3-((1R,5S,6R)-3-amino-5-(fluoromethyl)-2-oxa-4-azabicyclo[4.1.0]hept-3-en-5-yl)-4-chlorophenyl)-5-chloro-3-(fluoromethyl) picolinamide]
0.0469 µM	109 µM	0.0179 µM	NC1=N[C@](CF)(c2cc(NC(=O)c3ccc(Br)cn3)cc(F)c2F)[C@H]2C[C@H]2O1 [Example 39, N-(3-((1R,5S,6R)-3-amino-5-(fluoromethyl)-2-oxa-4-azabicyclo[4.1.0]hept-3-en-5-yl)-4,5-difluorophenyl)-5-bromopicolinamide]
